Laboratory results published in patent US4382940A (priority 1979, dated 1983).
Where two headings read alike, the source gives them in different places.

Tests used:
[1] = tested on: reserpine-induced blepharospasm; assay: antagonism to reserpine-induced blepharospasm; format: in vivo, male mice; settings: Mus musculus, po, 3 h, read-out: Reserpine antagonism, Blepharospasm (ED50)
Method: (§1) The tests were performed in an air-conditioned room at the constant temperature of 19°±1° C. Randomized groups of male mice were respectively treated by gavage with appropriate screening doses (from a maximum of 25 mg/kg below) of the test compounds, suspended in the vehicle (Methocel 0.5%; 1 ml/100 g b.w.), or with the vehicle alone.
(§2) One hour later the animals received an i.p. injection of reserpine (1.5 mg/kg; 1 ml/100 g b.w.), and one of the control groups the same volume of the vehicle alone (blank controls). Three hours after pretreatments, i.e. two hours after reserpine or vehicle treatments, blepharospasm was evaluated in scores as proposed by RUBIN et al. (J. Pharmacol., 120:125, 1957).

[2] = tested on: reserpine-induced hypothermia; assay: antagonism to reserpine-induced hypothermia; format: in vivo; settings: Mus musculus, po; gavage 1 h before reserpine 1.5 mg/kg i.p.; rectal temperature 2 h after blepharospasm evaluation; male mice
Method: as §1, §2
Two hours after the above-mentioned evaluation the rectal temperature of the animals was recorded by an appropriate probe connected to a digital thermometer (ELLAB DU-3).

mouse = assay: orientative acute toxicity (7 days observation, Irwin's observational assessment of mouse behavior); settings: in mice; imipramine compared with title compounds
[3] = as above; settings: mouse, in vivo, po
[4] = tested on: central amphetamine-induced hypothermia; assay: antagonism to central amphetamine-induced hypothermia; settings: Mus musculus, po, read-out: Amphetamine antagonism (ED50)

| Compound | ED50 ([1]; gavage 1 h before reserpine 1.5 mg/kg i.p., scored 2 h after reserpine, male mice) | ED50 [2] | orientative acute toxicity (in words) (mouse) | ED50 [1] | LD50 at 168 h [3] | ED50 [4] |
| --- | --- | --- | --- | --- | --- | --- |
| CN(C)CCCN1c2ccccc2CCc2ccccc21 [imipramine, reference compound] | 3.1 mg/kg | 18.2 mg/kg | quite higher orientative acute toxicity |  |  |  |
| Cc1[nH]c2cccc3c2c1C[C@@H]1[C@@H]3C[C@@H](COC2=CC(=O)CC2)CN1C [355/1301, 2,6-Dimethyl-8-[(2-cyclopentenon)-3-oxymethyl]-ergoline] |  | 0.57 mg/kg |  | 0.46 mg/kg | 300 mg/kg |  |
| CN1C[C@H](COC2=CC(=O)CC2)C[C@@H]2c3cccc4[nH]cc(c34)C[C@H]21 [355/1228, 6-Methyl-8-[(2-cyclopentenon)-3-oxymethyl]-ergoline] |  | 0.39 mg/kg |  | 0.14 mg/kg | > 600 mg/kg |  |
| CN1C[C@H](CNC2=CC(=O)CC2)C[C@@H]2c3cccc4[nH]cc(c34)C[C@H]21 [355/1206, 6-Methyl-8-[(2-cyclopentenon)-3-aminomethyl]-ergoline] |  | 7.7 mg/kg |  | 3.1 mg/kg | > 800 mg/kg |  |
| CC(=O)C=C(C)OC[C@@H]1C[C@@H]2c3cccc4[nH]cc(c34)C[C@H]2N(C)C1 [355/1171, 6-Methyl-3-[(3-buten-2-one-4-methyl)-4-oxymethyl]-ergoline] |  |  |  |  | > 800 mg/kg | 0.023 mg/kg |
| CSc1[nH]c2cccc3c2c1C[C@@H]1[C@@H]3C[C@@H](COC=CC(C)=O)CN1C [355/1357, 2-Thiomethyl-6-methyl-8-[(3-buten-2-one)-4-oxymethyl]-ergoline] |  |  |  |  | > 300 mg/kg | 2.5 mg/kg |
| CO[C@]12C[C@@H](COC3=CC(=O)CC3)CN(C)[C@@H]1Cc1cn(C)c3cccc2c13 [355/1240, 1,6-Dimethyl-8-[(2-cyclopentenon)-3-oxymethyl]-10-methoxyergoline] |  |  |  |  | 200 mg/kg | 1.8 mg/kg |
| CN1C[C@H](COC2=CC(=O)CC2)C[C@@H]2c3cccc4[nH]c(Cl)c(c34)C[C@H]21 [355/1335, 2-Chloro-6-methyl-8-[(2-cyclopentenon)-3-oxymethyl]-ergoline] |  | 0.3 mg/kg |  | 0.2 mg/kg | 200 mg/kg |  |
| CC(=CC#N)OC[C@@H]1C[C@@H]2c3cccc4[nH]cc(c34)C[C@H]2N(C)C1 [355/1311, 6-Methyl-8-[(3-methylacrylic nitrile)-3-oxymethyl]-ergoline] |  | 3.4 mg/kg |  | 1.5 mg/kg | 300 mg/kg |  |
| CCCN1C[C@H](COC=CC(C)=O)C[C@@H]2c3cccc4[nH]cc(c34)C[C@H]21 [355/1363, 6-Propyl-8-[(3-buten-2-one)-4-oxymethyl]-ergoline] |  |  |  |  | 400 mg/kg | 2.4 mg/kg |
| CN1C[C@H](CNC2=CC(=O)CC2)C[C@@H]2c3cccc4c3c(cn4C)C[C@H]21 [355/1295, 1,6-Dimethyl-8-[(2-cyclopentenon)-3-aminomethyl]-ergoline] |  |  |  |  | > 400 mg/kg | 1.8 mg/kg |
